Data reported in US20240215582A1, “METHODS OF CONTROLLING PLANT PATHOGENS” (Valent BioSciences LLC, priority 2022, published 2024).

Columns and labels:
[1] = system: Botrytis cinerea; assay: Foliar application, inoculated plants, disease severity; settings: for Disease severity B. cinerea: carrier control severity 63.3; for percent control B. cinerea: vs carrier control
Protocol: (§1) Biological efficacy assays utilizing cervinomycins were conducted on Pseudoperonospora cubensis and Botrytis cinerea. […] Once plants had dried they were inoculated with the pathogen, then were stored in a controlled climate chamber under high humidity for 4-6 days. At the end of the experiment disease severity was determined based on the percentage of plant tissue that was visually symptomatic.

[2] = system: Pseudoperonospora cubensis; assay: as above; settings: for Disease severity P. cubensis Oct. 20, 2020: carrier control severity 70; for Disease severity P. cubensis Oct. 27, 2020: carrier control severity 79; for Disease severity P. cubensis Jul. 28, 2020: carrier control severity 67
Protocol: as §1

[3] = 1 ppm foliar, vs carrier control
[4] = 3 ppm foliar, vs carrier control
[5] = 6 ppm foliar, vs carrier control
[6] = 12 ppm foliar, vs carrier control
[7] = 25 ppm foliar, vs carrier control
[8] = 30 ppm foliar, vs carrier control
[9] = 50 ppm foliar, vs carrier control

COc1cc2oc3c(c(=O)c2cc1OC)C(=O)c1c(ccc2cc4c(c(O)c12)C(=O)N1CCOC1(C)C4)C3=O (stereo not shown) [Cervinomycin A2, cervinomycin A2]
Disease severity B. cinerea ([1]; 1 ppm foliar): 58% | percent control B. cinerea ([1]; 1 ppm foliar): (9%) | Disease severity B. cinerea ([1]; 3 ppm foliar): 45% | percent control B. cinerea ([1]; 3 ppm foliar): (29%) | Disease severity B. cinerea ([1]; 6 ppm foliar): 45% | percent control B. cinerea ([1]; 6 ppm foliar): (29%) | Disease severity B. cinerea ([1]; 12 ppm foliar): 30% | percent control B. cinerea ([1]; 12 ppm foliar): (53%) | Disease severity B. cinerea ([1]; 25 ppm foliar): 24% | percent control B. cinerea ([1]; 25 ppm foliar): (63%) | Disease severity B. cinerea ([1]; 50 ppm foliar): 9% | percent control B. cinerea ([1]; 50 ppm foliar): (87%) | control of Botrytis cinerea (summary of Table 3) ([1]; foliar application): significant control | Disease severity P. cubensis Oct. 20, 2020 ([2]; 1 ppm foliar): 52% | Disease severity P. cubensis Oct. 27, 2020 ([2]; 1 ppm foliar): 7% | percent control P. cubensis Oct. 20, 2020 [2, 3]: (26%) | percent control P. cubensis Oct. 27, 2020 [2, 3]: 91% | Disease severity P. cubensis Oct. 20, 2020 ([2]; 3 ppm foliar): 27% | Disease severity P. cubensis Oct. 27, 2020 ([2]; 3 ppm foliar): 7% | percent control P. cubensis Oct. 20, 2020 [2, 4]: (61%) | percent control P. cubensis Oct. 27, 2020 [2, 4]: 91% | Disease severity P. cubensis Oct. 20, 2020 ([2]; 6 ppm foliar): 16% | Disease severity P. cubensis Oct. 27, 2020 ([2]; 6 ppm foliar): 2% | percent control P. cubensis Oct. 20, 2020 [2, 5]: (77%) | percent control P. cubensis Oct. 27, 2020 [2, 5]: 98% | Disease severity P. cubensis Oct. 20, 2020 ([2]; 12 ppm foliar): 3% | Disease severity P. cubensis Oct. 27, 2020 ([2]; 12 ppm foliar): 1% | percent control P. cubensis Oct. 20, 2020 [2, 6]: (95%) | percent control P. cubensis Oct. 27, 2020 [2, 6]: 99% | Disease severity P. cubensis Jul. 28, 2020 ([2]; 15 ppm foliar): 28% | percent control P. cubensis Jul. 28, 2020 ([2]; 15 ppm foliar, vs carrier control): 58% | Disease severity P. cubensis Oct. 20, 2020 ([2]; 25 ppm foliar): 4% | Disease severity P. cubensis Oct. 27, 2020 ([2]; 25 ppm foliar): 1% | percent control P. cubensis Oct. 20, 2020 [2, 7]: (94%) | percent control P. cubensis Oct. 27, 2020 [2, 7]: 99% | Disease severity P. cubensis Jul. 28, 2020 ([2]; 30 ppm foliar): 10% | Disease severity P. cubensis Jul. 14, 2020 ([2]; 30 ppm foliar, carrier control severity 98): 73% | percent control P. cubensis Jul. 14, 2020 [2, 8]: 26% | percent control P. cubensis Jul. 28, 2020 [2, 8]: 85% | Disease severity P. cubensis Oct. 20, 2020 ([2]; 50 ppm foliar): 7% | Disease severity P. cubensis Oct. 27, 2020 ([2]; 50 ppm foliar): 2% | percent control P. cubensis Oct. 20, 2020 [2, 9]: (89%) | percent control P. cubensis Oct. 27, 2020 [2, 9]: 98% | Disease severity P. cubensis Jul. 28, 2020 ([2]; 60 ppm foliar): 18% | percent control P. cubensis Jul. 28, 2020 ([2]; 60 ppm foliar, vs carrier control): 73% | control of Pseudoperonospora cubensis (summary of Table 3) ([2]; foliar application): significant control
